The values that follow come from US20250326799A1, “AGENTS INDUCING VASCULARISATION” (Coegin Pharma AB, priority 2022, published 2025).

What all share (type): cell-based
In assay [1] the test system is Human coronary artery smooth cells (HCASMCs). Description: Gene expression by PCR in arterial smooth muscle cells. On the procedure:
Cells on 6-well plates were washed with cold DPBS (Gibco, USA) and homogenized in Trizol reagent (Invitrogen, CA, USA). Total RNA was extracted using PureLink RNA Mini Kit (Invitrogen, CA, USA), followed by nucleic acid quantification with NanoDrop 2000c (Thermo Fisher Scientific, USA). To determine mRNA expression of target genes, real-time qPCR was performed using by KAPA SYBR FAST One-Step qRT-PCR Master Mix Kit (KAPA Biosystems, USA) on LightCycler480 system (Roche, Mannheim, Germany). All primers were purchased from miScript Primer Assays (Qiagen, Valencia, CA) and GAPDH mRNA expression of each sample was used for normalization. Cells on 6-well plates were washed with cold DPBS and lysed with the mixture of lysis buffer and protease inhibitors on ice, then centrifuged at 15,000 g for 20 min at 4° C. Supernatant was performed to measure the protein concentration using BCA Protein Assay Kit (Thermo Fisher Scientific, USA). Protein sample was loaded onto SDS-PAGE gels and separated with electrophoresis, followed by transferred to PVDF membranes (Millipore, USA). Membranes were blocked with 5% nonfat milk. Primary antibodies (Abcam, UK) and secondary antibodies were performed to incubate with membranes at 4° C. overnight and at room temperature for 1 hour respectively.

In assay [2] the test system is human coronary smooth muscle cells (HCASMCs). As to the kind of experiment: H2O2 measurement after oxLDL, smooth muscle cells. The conditions noted are these: smooth muscle cells pre-incubated with peptide; 50 ug/ml oxLDL for 2 hours. Here is the method:
The effect of FOL-026 peptide treatment on smooth muscle cell proliferation (FIG. 25a) and apoptosis (FIG. 25c) induced with low-oxygen condition was evaluated with the uptake of BrdU (n=10 per group) and active caspase-3/-7 (n=6-8 per group) separately. H2O2 measurement (FIG. 25b) of smooth muscle cells pre-incubated with FOL-26 peptides after 50 ug/ml oxidized Low-density Lipoprotein (oxLDL) stimulation for 2 hours (n=6-7 per group). Representative images of scratch wound assay in vitro are shown (FIG. 26a) and the ability of wound healing (FIG. 26b) in human coronary smooth muscle cells (HCASMCs) treated with FOL-026 peptides was measured by image J software (n=10 per group). Scale bar=150 um. Data are presented as means±SEM and acquired from 3 to 4 independent replicate tests. *P<0.05, **P<0.01, ***P<0.001, ****P<0.0001 by one-way ANOVA and Dunnett's post-hoc test.

The subject of assay [3] is human umbilical vascular endothelial cells (HUVECs). Description: Low-oxygen induced apoptosis, active caspase-3/-7, HUVECs. On the procedure:
The impact of FOL-026 peptide on human umbilical vascular endothelial cells (HUVECs) proliferation (FIG. 18a) and apoptosis (FIG. 18c) induced with low-oxygen condition was determined by BrdU uptake (n=8-9 per group) and active caspase-3/-7 (n=7-10 per group) separately. The ROS level (FIG. 18b) activated by 50 ug/ml oxidized Low-density Lipoprotein (oxLDL) for 2 hours in cells pre-incubated with FOL-026 peptides was assessed using H2O2 measurement (n=4-8 per group). Representative pictures of endothelial migration into an in vitro scratch injury were shown (FIG. 19a) and the wound closure rate (FIG. 19b) in HUVECs stimulated with increasing concentration of FOL-026 peptide was quantified by image J software (n=8-9 per group). Scale bar=150 um. Data are presented as means±SEM and acquired from 3 to 4 independent replicate tests. *P<0.05, **P<0.01, ****P<0.0001 by one-way ANOVA and Dunnett's post-hoc test.
The efficiency of small interfering RNA transfection for 48 hours in HUVECs was confirmed by qRT-PCR (n=4) (FIG. 22a). […]

For the sequence VDTYDGGISVVYGLR [FOL-026], the c-MET gene expression result in assay [1] (10 nM and 1000 nM) is recorded as “reduced”. For the same sequence, in assay [1] (10, 100, and 1000 nM), the MMP2 gene expression entry was “induced”, the NRP-1 gene expression result was “reduced” and the VEGF-A gene expression entry is on record as “induced”. In addition, in assay [1] (100 and 1000 nM), the IL-6 gene expression result was “induced”, the MMP3 gene expression result is listed as “induced” and the TNF-α gene expression result was “induced”. Moreover, in assay [2], the “ROS formation (H2O2 measurement)” value was “reduces ROS formation”. Further, the “cell apoptosis at 0.1% oxygen after NRP-1 knock-down (active caspase-3/-7)” value in assay [3] (HUVECs transfected with siRNA-NC or siNRP-1) is “blocks the effect”. Also, in assay [3] (HUVECs, low-oxygen condition), the “low oxygen induced apoptosis (active caspase-3/-7)” value was “alleviates the effect of low oxygen induced apoptosis”.
